Patent US20230096766A1, “AMINO ACID HAVING FUNCTIONAL GROUP CAPABLE OF INTERMOLECULAR HYDROGEN BONDING, PEPTIDE COMPOUND CONTAINING SAME AND METHOD FOR PRODUCTION THEREOF” (Chugai Seiyaku Kabushiki Kaisha, priority 2018, published 2023)
Read-outs that look alike come from different tables or passages of the source. *1 amine or outer side, *2 acyl side, *3 side chain or, on linkers, in order; H or OH if unused. Where a SMILES comes first, the peptide text is derived from it. Bridges are numbered along the chain shown (N, C = ends). [ ]: non-standard residue; d: D form. The star is where a group is joined. NMeAla(4-thiazolyl) = CN[C@@H](Cc1cscn1)C(=O)O; NMehPhe = CN[C@@H](CCc1ccccc1)C(=O)O; hhPhe = N[C@@H](CCCc1ccccc1)C(=O)O; NMeF = CN[C@@H](Cc1ccccc1)C(=O)O; NMeGABA = CN(CCCC(=O)[*:2])[*:1]; NMeI = CC[C@H](C)[C@H](NC)C(=O)O; hPhe = N[C@@H](CCc1ccccc1)C(=O)O; 3Pal = N[C@@H](Cc1cccnc1)C(=O)O; NMeD = CN[C@@H](CC(=O)O)C(=O)O; NMeL = CN[C@@H](CC(C)C)C(=O)O; NMeV = CN[C@H](C(=O)O)C(C)C; NMeA = CN[C@@H](C)C(=O)O; Piperidide = C1CCN(*)CC1; dNMeA = CN[C@H](C)C(=O)O; NPrGly = CCCNCC(=O)O; Sar = CNCC(=O)O; tBu = CC(C)(C)*

Assays:
in vitro = settings: human

Row | SMILES | Caco-2 (Caco-2) [cm/s] | Papp (in vitro; Caco-2, Caco-2 (cm/sec)) [×10⁻⁶ cm/s] | Caco-2 (Caco-2; human) [cm/s] | Caco-2 (cm/sec) Papp (Caco-2; human) [cm/s] | Papp (in vitro; Caco-2, Caco-2 (cm/sec) Papp) [×10⁻⁶ cm/s]
1 | CC(C)C[C@H]1C(=O)N(C)[C@@H](CCc2ccccc2)C(=O)N[C@@H](COC(C)(C)C)C(=O)N(C)[C@@H](C)C(=O)N[C@H](C(=O)N2CCCCC2)CC(=O)N(C)[C@@H](C)C(=O)N(C)[C@@H](Cc2ccccc2)C(=O)N[C@@H](CCc2ccccc2)C(=O)N(C)[C@@H](CC(C)C)C(=O)N[C@@H]([C@@H](C)O)C(=O)N(C)CC(=O)N1C [pd184] ([NMeA][NMeF][hPhe][NMeL]T[Sar][NMeL][NMehPhe]S(tBu)[NMeA]D-Piperidide; lactam N-11) | 1.2e-06 | 1.2 |  |  | 
2 | CC(C)C[C@H]1C(=O)N[C@@H](COC(C)(C)C)C(=O)N(C)[C@@H](Cc2ccccc2)C(=O)N(C)[C@@H](C(C)C)C(=O)N[C@H](C(=O)N2CCCCC2)CC(=O)N[C@H](C)C(=O)N(C)[C@@H](Cc2ccccc2)C(=O)NC(COc2cccc(Cl)c2)C(=O)N(C)[C@@H](C(C)C)C(=O)N[C@@H]([C@@H](C)O)C(=O)N(C)CC(=O)N1C (some centres unmarked) [pd185] | 2.2e-06 | 2.2 |  |  | 
3 | CC(C)C[C@H]1C(=O)N[C@@H](COC(C)(C)C)C(=O)N(C)[C@@H](Cc2ccccc2)C(=O)N(C)[C@@H](C(C)C)C(=O)N[C@H](C(=O)N2CCCCC2)CC(=O)N[C@H](C(C)C)C(=O)N(C)[C@@H](Cc2ccccc2)C(=O)N[C@@H](COc2cccc(Cl)c2)C(=O)N(C)[C@@H](C)C(=O)N[C@@H]([C@@H](C)O)C(=O)N(C)CC(=O)N1C [pd187] | 1.9e-06 | 1.9 |  |  | 
4 | CC[C@H](C)[C@H]1C(=O)N[C@@H]([C@@H](C)O)C(=O)N(C)CC(=O)N(C)[C@@H](CC(C)C)C(=O)N[C@H](C(=O)N2CCCCC2)CC(=O)N(C)[C@@H](C)C(=O)NC(COc2cccc(Cl)c2)C(=O)N(C)[C@@H](CC(C)C)C(=O)N(C)[C@@H](Cc2ccccc2)C(=O)N[C@@H](C)C(=O)N(C)[C@@H](Cc2ccccc2)C(=O)N1C (some centres unmarked) [pd188] | 1.3e-06 | 1.8 | 1.3e-06 |  | 
5 | CC[C@H](C)[C@H]1C(=O)N[C@H](C(=O)N2CCCCC2)CC(=O)N(C)CC(=O)N(C)[C@@H](Cc2ccccc2)C(=O)N[C@@H](CCCc2ccccc2)C(=O)N(C)[C@@H](CC(C)C)C(=O)N[C@@H]([C@@H](C)O)C(=O)N(C)CC(=O)N(C)[C@@H](Cc2ccccc2)C(=O)N(C)[C@@H](CC(C)C)C(=O)N[C@@H](COC(C)(C)C)C(=O)N1C [pd189] ([Sar][NMeF][hhPhe][NMeL]T[Sar][NMeF][NMeL]S(tBu)[NMeI]D-Piperidide; lactam N-11) | 1.8e-06 | 1.8 |  |  | 
6 | CC[C@H](C)[C@@H]1NC(=O)[C@H](Cc2ccccc2)N(C)C(=O)CN(C)C(=O)C[C@@H](C(=O)N2CCCCC2)NC(=O)[C@H](C)N(C)C(=O)[C@H](CCCc2ccccc2)NC(=O)[C@H](CC(C)C)N(C)C(=O)[C@H](Cc2ccccc2)N(C)C(=O)CN(C)C(=O)[C@H]([C@@H](C)O)NC(=O)[C@H](CC(C)C)N(C)C1=O [pd190] ([Sar][NMeF]I[NMeL]T[Sar][NMeF][NMeL][hhPhe][NMeA]D-Piperidide; lactam N-11) | 1.5e-06 | 1.5 |  |  | 
7 | CC(C)C[C@H]1C(=O)N[C@H](C(=O)N2CCCCC2)CC(=O)N(C)[C@@H](C)C(=O)N[C@@H](CCCc2ccccc2)C(=O)N(C)[C@@H](CC(C)C)C(=O)N(C)[C@@H](Cc2ccccc2)C(=O)N[C@@H](C)C(=O)N(C)[C@@H](Cc2ccccc2)C(=O)N(C)[C@@H](C(C)C)C(=O)N[C@@H]([C@@H](C)O)C(=O)N(C)CC(=O)N1C [pd191] ([NMeA][hhPhe][NMeL][NMeF]A[NMeF][NMeV]T[Sar][NMeL]D-Piperidide; lactam N-11) | 1.5e-06 | 1.5 |  |  | 
8 | CC(C)C[C@H]1C(=O)N[C@@H](COC(C)(C)C)C(=O)N(C)[C@@H](Cc2ccccc2)C(=O)N(C)[C@@H](C)C(=O)N[C@H](C(=O)N2CCCCC2)CC(=O)N[C@H](C(C)C)C(=O)N(C)[C@@H](Cc2ccccc2)C(=O)N[C@@H](CCCc2ccccc2)C(=O)N(C)[C@@H](CC(C)C)C(=O)N[C@@H]([C@@H](C)O)C(=O)N(C)CC(=O)N1C [pd192] ([dV][NMeF][hhPhe][NMeL]T[Sar][NMeL]S(tBu)[NMeF][NMeA]D-Piperidide; lactam N-11) | 1.1e-06 | 1.1 |  |  | 
9 | CC(C)C[C@H]1C(=O)N[C@@H](CCCc2ccccc2)C(=O)N(C)[C@@H](Cc2ccccc2)C(=O)N(C)[C@@H](C(C)C)C(=O)N[C@H](C(=O)N2CCCCC2)CC(=O)N[C@H](C)C(=O)N(C)[C@@H](Cc2ccccc2)C(=O)N[C@@H](C(C)C)C(=O)N(C)[C@@H](CC(C)C)C(=O)N[C@@H]([C@@H](C)O)C(=O)N(C)CC(=O)N1C [pd193] ([dA][NMeF]V[NMeL]T[Sar][NMeL][hhPhe][NMeF][NMeV]D-Piperidide; lactam N-11) | 1e-06 | 1 |  |  | 
10 | CCCN1CC(=O)N(C)[C@@H](CC(C)C)C(=O)N[C@@H](COC(C)(C)C)C(=O)N(C)[C@@H](Cc2ccccc2)C(=O)N(C)[C@@H](Cc2ccccc2)C(=O)N[C@H](C(=O)N2CCCCC2)CC(=O)N[C@H](C)C(=O)N(C)[C@@H](Cc2ccccc2)C(=O)N[C@@H](C(C)C)C(=O)N(C)[C@@H](CC(C)C)C(=O)N[C@@H]([C@@H](C)O)C1=O [pd194] ([dA][NMeF]V[NMeL]T[NPrGly][NMeL]S(tBu)[NMeF][NMeF]D-Piperidide; lactam N-11) | 5.3e-06 | 5.3 |  |  | 
11 | CCCN1CC(=O)N(C)[C@@H](Cc2ccccc2)C(=O)N[C@@H]([C@@H](C)CC)C(=O)N(C)[C@@H](Cc2ccccc2)C(=O)N[C@@H]([C@@H](C)O)C(=O)N(C)CC(=O)N(C)[C@@H](Cc2ccccc2)C(=O)N(C)[C@@H](CC(C)C)C(=O)N[C@@H](COC(C)(C)C)C(=O)N(C)[C@@H](C(C)C)C(=O)N[C@H](C(=O)N2CCCCC2)CC1=O [pd195] ([NPrGly][NMeF]I[NMeF]T[Sar][NMeF][NMeL]S(tBu)[NMeV]D-Piperidide; lactam N-11) | 5e-06 | 5 |  |  | 
12 | CC(C)C[C@@H]1NC(=O)[C@H](Cc2ccccc2)N(C)C(=O)[C@@H]2CCCN2C(=O)C[C@@H](C(=O)N2CCCCC2)N(C)C(=O)[C@H](Cc2ccccc2)N(C)C(=O)[C@H](Cc2ccccc2)N(C)C(=O)[C@H](COC(C)(C)C)NC(=O)[C@H](C(C)C)N(C)C(=O)CN(C)C(=O)[C@H]([C@@H](C)O)NC(=O)[C@H](CC(C)C)N(C)C1=O [pd196] (P[NMeF]L[NMeL]T[Sar][NMeV]S(tBu)[NMeF][NMeF][NMeD]-Piperidide; lactam N-11) | 4e-06 | 4 |  |  | 
13 | CC(C)C[C@@H]1NC(=O)[C@H](Cc2ccccc2)N(C)C(=O)[C@H](C)N(C)C(=O)C[C@@H](C(=O)N2CCCCC2)NC(=O)[C@H](C(C)C)N(C)C(=O)[C@H](Cc2ccccc2)N(C)C(=O)[C@H](COC(C)(C)C)NC(=O)[C@H](CC(C)C)N(C)C(=O)CN(C)C(=O)[C@H](Cc2cccnc2)NC(=O)[C@H](CC(C)C)N(C)C1=O [pd197] ([NMeA][NMeF]L[NMeL][3Pal][Sar][NMeL]S(tBu)[NMeF][NMeV]D-Piperidide; lactam N-11) | 3e-06 | 3 |  |  | 
14 | CC(C)C[C@H]1C(=O)N(C)[C@@H](C(C)C)C(=O)N[C@@H](Cc2ccccc2)C(=O)N[C@H](C(=O)N(C)[C@@H](Cc2ccccc2)C(=O)N[C@@H](C)C(=O)N2CCCCC2)CC(=O)N(C)CCCC(=O)N[C@@H](C(C)C)C(=O)N(C)[C@@H](CC(C)C)C(=O)N[C@@H]([C@@H](C)O)C(=O)N(C)[C@@H](Cc2ccccc2)C(=O)NCC(=O)N1C [pd198] ([NMeGABA]V[NMeL]T[NMeF]G[NMeL][NMeV]FD[NMeF]A-Piperidide; lactam N-10) | 2.7e-06 | 2.7 |  |  | 
15 | CC(C)C[C@@H]1NC(=O)[C@H](Cc2ccccc2)N(C)C(=O)[C@@H](C)N(C)C(=O)C[C@@H](C(=O)N2CCCCC2)N(C)C(=O)[C@H](Cc2ccccc2)N(C)C(=O)[C@H](Cc2ccccc2)N(C)C(=O)[C@H](COC(C)(C)C)NC(=O)[C@H](C(C)C)N(C)C(=O)CN(C)C(=O)[C@H]([C@@H](C)O)NC(=O)[C@H](CC(C)C)N(C)C1=O [pd199] ([dNMeA][NMeF]L[NMeL]T[Sar][NMeV]S(tBu)[NMeF][NMeF][NMeD]-Piperidide; lactam N-11) | 2.6e-06 | 2.6 |  |  | 
16 | CC(C)C[C@@H]1NC(=O)[C@H](Cc2ccccc2)N(C)C(=O)[C@H]2CCCN2C(=O)C[C@@H](C(=O)N2CCCCC2)N(C)C(=O)[C@H](Cc2ccccc2)N(C)C(=O)[C@H](Cc2ccccc2)N(C)C(=O)[C@H](COC(C)(C)C)NC(=O)[C@H](C(C)C)N(C)C(=O)CN(C)C(=O)[C@H]([C@@H](C)O)NC(=O)[C@H](CC(C)C)N(C)C1=O [pd200] ([dP][NMeF]L[NMeL]T[Sar][NMeV]S(tBu)[NMeF][NMeF][NMeD]-Piperidide; lactam N-11) | 2.6e-06 | 2.6 |  |  | 
17 | CC(C)C[C@@H]1NC(=O)[C@H](Cc2ccccc2)N(C)C(=O)[C@H](C)N(C)C(=O)C[C@@H](C(=O)N2CCCCC2)NC(=O)[C@H](CC(C)C)N(C)C(=O)[C@H](Cc2ccccc2)N(C)C(=O)[C@H](Cc2ccccc2)NC(=O)[C@H](Cc2cscn2)N(C)C(=O)[C@H](C)N(C)C(=O)[C@H](CC(C)C)N(C)C(=O)[C@H]([C@@H](C)O)NC1=O [pd238] ([NMeA][NMeF]LT[NMeL][NMeA][NMeAla(4-thiazolyl)]F[NMeF][NMeL]D-Piperidide; lactam N-11) |  |  |  | 8.8e-08 | 0.096
